Data from PMC6556873, “Rapid Covalent-Probe Discovery by Electrophile-Fragment Screening” (Journal of the American Chemical Society, 2019).
Read-outs that look alike come from different tables or passages of the source.

Legend:
BSA = target: T1, BSA (Bos taurus, UniProt P02769); design: Intact protein LC/MS covalent labelling, fragments in pools of five, 200 uM each, 4 °C; settings: 24 h, 4 °C, pool of five; 200 µM; covalent
T1 construct: gene ALB

NNMT (hNNMT) = target: T2, NNMT (hNNMT) (Homo sapiens, UniProt P40261); design: Intact protein LC/MS covalent labelling, fragments in pools of five, 200 uM each, 4 °C; settings: 24 h, 4 °C, pool of five; 200 µM; covalent
T2 construct: wild type, N-terminal His6 tag kept (no cleavage described), E. coli, construct 31248 Da
T2 sequence (P40261 1-264): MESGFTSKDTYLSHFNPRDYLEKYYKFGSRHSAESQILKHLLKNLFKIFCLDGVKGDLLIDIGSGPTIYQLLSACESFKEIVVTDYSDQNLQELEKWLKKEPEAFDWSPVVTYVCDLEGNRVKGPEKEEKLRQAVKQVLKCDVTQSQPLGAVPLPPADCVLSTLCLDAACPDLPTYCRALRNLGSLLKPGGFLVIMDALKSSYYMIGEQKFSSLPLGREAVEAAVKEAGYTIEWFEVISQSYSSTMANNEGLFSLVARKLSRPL

NUDT7 = target: T3, NUDT7 (Homo sapiens, UniProt P0C024); design: Intact protein LC/MS covalent labelling, fragments in pools of five, 200 uM each, 4 °C; settings: 24 h, 4 °C, pool of five; 200 µM; covalent
T3 construct: residues 14-235, E. coli, pNIC28-Bsa4, N-terminal His6 tag removed by TEV, construct 26672 Da

OTUB2 (OTUB2A) = target: T4, OTUB2 (OTUB2A) (Homo sapiens, UniProt Q96DC9); design: Intact protein LC/MS covalent labelling, fragments in pools of five, 200 uM each, 4 °C; settings: 24 h, 4 °C, pool of five; 200 µM; covalent
T4 construct: full length residues 1-234, E. coli BL21(DE3)-R3, His tag removed by TEV, construct 27312 Da
T4 sequence (Q96DC9 1-234): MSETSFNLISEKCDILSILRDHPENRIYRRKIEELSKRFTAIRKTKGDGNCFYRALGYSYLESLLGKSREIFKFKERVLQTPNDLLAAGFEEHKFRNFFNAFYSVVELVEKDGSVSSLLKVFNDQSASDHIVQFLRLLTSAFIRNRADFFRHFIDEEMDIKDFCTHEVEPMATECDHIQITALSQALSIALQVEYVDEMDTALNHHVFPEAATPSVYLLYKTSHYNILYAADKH

PCAF = target: T5, PCAF (Homo sapiens, UniProt Q92831); design: Intact protein LC/MS covalent labelling, fragments in pools of five, 200 uM each, 4 °C; settings: 24 h, 4 °C, pool of five; 200 µM; covalent
T5 construct: gene KAT2B

in vitro [1] = assay: in vitro; design: species or system CCD841, HEK293; settings: human, hb2 cells, read-out: HB-2 Cells Viability (%)
in vitro [2] = assay: in vitro; design: species or system HB2, HEK293; settings: human, ccd841 cells
in vitro [3] = assay: in vitro; design: species or system HB2, CCD841; settings: human, hek293 cells

T1 sequence (P02769 whole entry, the tested form may be a part): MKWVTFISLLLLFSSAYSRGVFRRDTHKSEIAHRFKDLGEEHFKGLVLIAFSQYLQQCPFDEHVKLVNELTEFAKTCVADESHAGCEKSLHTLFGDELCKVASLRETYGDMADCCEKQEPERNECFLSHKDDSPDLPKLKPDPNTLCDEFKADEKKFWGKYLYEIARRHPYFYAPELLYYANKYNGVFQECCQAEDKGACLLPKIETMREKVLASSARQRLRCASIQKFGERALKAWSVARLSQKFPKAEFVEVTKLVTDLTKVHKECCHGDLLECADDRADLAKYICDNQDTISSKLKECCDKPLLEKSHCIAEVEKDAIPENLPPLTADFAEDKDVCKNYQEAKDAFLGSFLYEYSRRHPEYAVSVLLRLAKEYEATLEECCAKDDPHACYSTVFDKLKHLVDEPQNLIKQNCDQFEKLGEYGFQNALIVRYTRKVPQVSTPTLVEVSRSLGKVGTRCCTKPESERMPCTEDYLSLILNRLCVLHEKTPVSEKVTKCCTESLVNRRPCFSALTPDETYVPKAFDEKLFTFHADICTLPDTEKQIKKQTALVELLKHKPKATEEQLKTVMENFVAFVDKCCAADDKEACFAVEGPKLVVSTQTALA
T3 sequence (P0C024 14-235): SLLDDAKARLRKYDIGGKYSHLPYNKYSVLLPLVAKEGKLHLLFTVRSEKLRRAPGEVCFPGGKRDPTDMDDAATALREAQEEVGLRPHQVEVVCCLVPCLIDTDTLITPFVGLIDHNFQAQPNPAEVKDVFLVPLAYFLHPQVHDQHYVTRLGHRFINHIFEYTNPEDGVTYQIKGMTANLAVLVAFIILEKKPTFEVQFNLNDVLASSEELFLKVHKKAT
T5 sequence (Q92831 whole entry, the tested form may be a part): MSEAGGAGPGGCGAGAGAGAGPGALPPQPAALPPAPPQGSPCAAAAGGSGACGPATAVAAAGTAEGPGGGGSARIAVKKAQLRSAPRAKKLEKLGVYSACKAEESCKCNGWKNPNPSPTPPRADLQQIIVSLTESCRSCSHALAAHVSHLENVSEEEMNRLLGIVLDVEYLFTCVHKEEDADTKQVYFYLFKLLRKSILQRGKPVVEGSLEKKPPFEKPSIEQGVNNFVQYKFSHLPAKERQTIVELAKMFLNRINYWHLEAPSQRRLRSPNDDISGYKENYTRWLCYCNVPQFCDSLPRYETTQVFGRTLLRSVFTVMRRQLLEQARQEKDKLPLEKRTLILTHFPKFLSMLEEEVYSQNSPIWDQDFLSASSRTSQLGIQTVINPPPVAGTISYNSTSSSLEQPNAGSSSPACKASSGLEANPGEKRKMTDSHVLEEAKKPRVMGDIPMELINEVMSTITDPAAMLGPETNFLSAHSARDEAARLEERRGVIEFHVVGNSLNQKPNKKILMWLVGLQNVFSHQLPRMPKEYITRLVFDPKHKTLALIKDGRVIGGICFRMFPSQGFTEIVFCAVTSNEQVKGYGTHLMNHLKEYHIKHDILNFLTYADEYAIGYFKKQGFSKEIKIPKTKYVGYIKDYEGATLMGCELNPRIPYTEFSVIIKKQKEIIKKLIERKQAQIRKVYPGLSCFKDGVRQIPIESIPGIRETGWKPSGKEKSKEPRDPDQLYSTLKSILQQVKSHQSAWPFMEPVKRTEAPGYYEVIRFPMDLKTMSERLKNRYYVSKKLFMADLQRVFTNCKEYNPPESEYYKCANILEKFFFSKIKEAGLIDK

Row | Compound | BSA (BSA) | NNMT (NNMT (hNNMT)) | NUDT7 (NUDT7) | OTUB2 (OTUB2 (OTUB2A)) | PCAF (PCAF) | viability at 48 h, 10 µM (in vitro [1]) [%] | viability at 48 h, 10 µM (in vitro [2]) [%] | viability at 48 h, 10 µM (in vitro [3]) [%]
1 | CN(Cc1cc(Br)cs1)C(=O)CCl [PCM-0103081] | 0 | 0 | 0 | 0 | 0 | 5.1 | 45.5 | 11.9
2 | O=C(CCl)N=c1sccn1Cc1ccccc1 [PCM-0102469] | 0 | 0.25 | 0 | 0.11 | 0 | 42.3 | 5.2 | 7
3 | CCc1cccc(C)c1NC(=O)CCl [PCM-0102618] | 0 | 0 | 0.11 | 0 | 0 | 98.3 | 106 | 101
4 | C=CC(=O)N1CCCCC1c1cnn(C)c1 (stereo not shown) [PCM-0102675] | 0 | 0 | 0.1 | 0 | 0 | 95.7 | 103 | 88.5
5 | Cc1ccsc1CNC(=O)CCl [PCM-0103075] | 0.21 | 0 | 0 | 0.55 | 0 | 96.1 | 76.7 | 83.8
6 | CC(C)N(C(=O)CCl)c1ccccc1 [PCM-0102272] | 0 | 0 | 0.22 | 0 | 0 | 58.6 | 17.7 | 16
7 | O=C(CCl)Nc1nc(C2CC2)no1 [PCM-0103076] | 0 | 0.16 | 0 | 0.11 | 0 | 104 | 102 | 97.9
8 | C=CC(=O)N1CCN(C(=O)Cc2c(C)noc2C)CC1 [PCM-0102531] | 0 | 0 | 0 | 0 | 0 | 106 | 106 | 91.3
9 | Cc1csc(CC(=O)NNC(=O)CCl)n1.Cl [PCM-0102095] | 0 | 0 | 0 | 0.51 | 0 | 93.3 | 79 | 81.9
10 | Cl.O=C(CCl)Nc1cccnc1 [PCM-0102653] | 0 | 0 | 0 | 0 | 0 | 84.6 | 85.6 | 93.3
11 | C=CC(=O)NC1CCN(c2ccccc2C(F)(F)F)C1 (stereo not shown) [PCM-0102731] | 0 | 0 | 0 | 0 | 0 | 100 | 104 | 69.7
12 | N#CSc1ccc(NC(=O)CCl)c(Cl)c1 [PCM-0102506] | 0 | 0.38 | 0 | 0 | 0 | 20.6 | 33.4 | 51.9
13 | C=CC(=O)Nc1nc(C)cc(C)n1 [PCM-0102547] | 0 | 0 | 0.34 | 0 | 0 | 98.2 | 100 | 133
14 | O=C(CCl)NC1CCS(=O)(=O)C1 (stereo not shown) [PCM-0102138] | 0 | 0 | 0 | 0 | 0 | 92.6 | 84.2 | 113
15 | O=C(CCl)Nc1ccccc1 [PCM-0102658] | 0 | 0 | 0 | 0 | 0 | 72 | 67 | 56.1
16 | C=CC(=O)N1CCCCC1c1ncon1 (stereo not shown) [PCM-0102517] | 0 | 0 | 0 | 0 | 0 | 101 | 120 | 91.3
17 | CC1CCCC(C)N1C(=O)CCl (stereo not shown) [PCM-0102616] | 0 | 0.2 | 0 | 0 | 0 | 71 | 88.1 | 57.9
18 | COc1ccc(NC(=O)CCl)cc1Cl [PCM-0102652] | 0 | 0.83 | 0.12 | 0.24 | 0 | 10 | 29.3 | 2.6
19 | O=C(CCl)NC1CCCC1 [PCM-0102250] | 0 | 0 | 0 | 0 | 0 | 71.9 | 69.1 | 58.7
20 | C=CC(=O)NCC1CCC2(CCOCC2)C1O (stereo not shown) [PCM-0102569] | 0 | 0.36 | 0.11 | 0 | 0 | 110 | 110 | 84.7
